Earlier results as cited in patent publication US9662346B2, “Method of treating hyperesthesia, paresthesia, dolor, and pruritus caused by insect stings or noxious weeds or plants using avermectin compound” (priority 2007, dated 2017).

Legend:
head lice = settings: single topical application
[1] = oral dosage of a moderate ivermectin concentration

For ivermectin, the “effect on head lice” value (head lice) is given as “curative effect” and the safety in human [1] is given as “safe in human, without serious adverse side effects”.
